Assay results as given in patent publication US6156700A, “3-(1,2-Benzisothiazol- and isoxazol-5-yl)-2,4(1H,3H)-pyrimidinedione or thione and 3-(1,2-benzisothiazol- and isoxazol-5-yl)-4(3H)-pyrimidinone or thione herbicidal agents” (American Cyanmid Company, priority 1998, dated 2000).

Assays:
ORYSAT Rice, Tebonnet [1] = assay: Rice tolerance, flooded paddy (Table IV); format: in vivo, Oryza sativa; parameters: scale not given here; settings: crop tolerance
Outline: (§1)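 Containers holding 3 to 5 cm weeds and rice at the 1.5 to 2.5 leaf stage are flooded and kept 1.5 to 3 cm deep. Test material is applied directly into the water at about 0.0313 to 0.500 kg/ha, then plants are held in the greenhouse for three to four weeks before rating.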

Corn, Field, Zea mays = assay: Postemergence herbicidal evaluation, ZEAMX; format: in vivo, L.
Outline: (§2)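 Visual 0–9 rating vs untreated control (stand, vigor, malformation, size, chlorosis, overall appearance), scored 4–5 wk post-spray. Two-week-old seedlings; compound in 50/50 acetone/water + 0.5% TWEEN 20, ~0.0157–0.500 kg/ha, 40 psi nozzle.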

CYPSE Flatsedge [2] = assay: Preemergence weed control, flooded paddy (Table III); format: in vivo, Cyperus serotinus; parameters: scale not given here
Outline: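 Seeds or propagules sown in silt loam under 1.5 to 3 cm standing flood water; compound in 50/50 aqueous/acetone pipetted into the water at about 0.0313 to 0.500 kg/ha active ingredient. Greenhouse-held; herbicidal effect rated on a scale 3-4 weeks after treatment.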

[3] = tested on: Foxtail, Green, Setaria viridis; assay: Preemergence herbicidal evaluation, SETVI; format: in vivo, (L.) Beau; settings: 0.2500 kg/ha
Outline: (§3)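 Preemergence spray, aqueous acetone solution, ~0.0156–0.500 kg/ha, applied to freshly seeded soil cups. Greenhouse, 4–5 wk. Visual 0–9 rating vs untreated control (stand, vigor, malformation, size, chlorosis, overall appearance).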

Galium, Galium aparine = assay: Preemergence herbicidal evaluation, GALAP; format: in vivo; settings: 0.2500 kg/ha
Outline: as §3

ORYSAT Rice, Tebonnet [4] = assay: Tolerance of transplanted rice to post-transplant application (Table III); format: in vivo, Oryza sativa; parameters: scale not given here; settings: crop tolerance
Outline: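 Two ten-day-old Tebonnet seedlings were transplanted into flooded silt loam, with water kept 1.5–3 cm above the soil. Three days after transplanting, the flooded surface was treated with compound in 50/50 aqueous/acetone at about 0.0313–0.500 kg/ha. Injury was rated in the greenhouse 3–4 weeks after treatment.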

[5] = tested on: Lambsquarters, Common, Chenopodium album; assay: Preemergence herbicidal evaluation, CHEAL; format: in vivo, L.; settings: 0.2500 kg/ha
Outline: as §3

[6] = tested on: Barnyardgrass, Echinochloa crus-galli; assay: Postemergence herbicidal evaluation, ECHCG; format: in vivo, (L.) Beau
Outline: as §2

[7] = tested on: Soybean, Williams, Glycine max; assay: Postemergence herbicidal evaluation, GLXMAW; format: in vivo, (L.) Merr. cv Williams
Outline: as §2

[8] = tested on: Morningglory Spp., Ipomoea Spp.; assay: Postemergence herbicidal evaluation, IPOSS; format: in vivo; settings: 0.2500 kg/ha
Outline: as §2

[9] = tested on: Sicklepod, Cassia obtusifolia; assay: Preemergence herbicidal evaluation, CASOB; format: in vivo, L.; settings: 0.2500 kg/ha
Outline: as §3

[10] = tested on: Wheat, Winter, cv Riband, Triticum aestivum; assay: Preemergence herbicidal evaluation, TRZAWR; format: in vivo; settings: 0.2500 kg/ha
Outline: as §3

[11] = tested on: SAGPY Arrowhead (Pygmaea); assay: Postemergence weed control, flooded paddy (Table IV); format: in vivo, Sagittaria pygmaea; parameters: scale not given here
Outline: as §1

[12] = tested on: Rice, Tebonnet, Oryza sativa; assay: Preemergence herbicidal evaluation, ORYSAT; format: in vivo, (L.) Tebonnet; settings: 0.2500 kg/ha
Outline: as §3

Soybean, Glycine max = assay: Postemergence herbicidal evaluation, GLXMA; format: in vivo, (L.) Merr.; settings: 0.2500 kg/ha
Experimental: In the tests, seedling plants are grown in jiffy flats for about two weeks. The test compounds are dispersed in 50/50 acetone/water mixtures containing 0.5% TWEEN®20, a polyoxyethylene sorbitan monolaurate surfactant of Atlas Chemical Industries, in sufficient quantities to provide the equivalent of about 0.0157 kg to 0.500 kg per hectare of active compound when applied to the plants through a spray nozzle operating at 40 psi for a predetermined time. After spraying, the plants are placed on greenhouse benches and are cared for in accordance with conventional greenhouse procedures. From four to five weeks after treatment, the seedling plants are examined and rated according to the rating system set forth below. Where more than one test is involved for a given compound, the data are averaged.
Results of herbicide evaluation are expressed on a rating scale (0-9). The scale is based upon a visual observation of plant stand, vigor, malformation, size, chlorosis and overall plant appearance as compared with a control.

[13] = tested on: Velvetleaf, Abutilon theophrasti; assay: Postemergence herbicidal evaluation, ABUTH; format: in vivo, Medic.
Outline: as §2

CYPSE Flatsedge [14] = assay: Postemergence weed control, flooded paddy (Table IV); format: in vivo, Cyperus serotinus; parameters: scale not given here
Outline: as §1

Row | SMILES | herbicidal effect rating (ORYSAT Rice, Tebonnet [1]; 0.1250 kg/ha) | herbicidal effect rating (ORYSAT Rice, Tebonnet [1]; 0.2500 kg/ha) | herbicidal effect rating (ORYSAT Rice, Tebonnet [1]; 0.5000 kg/ha) | herbicide rating (0-9) (Corn, Field, Zea mays; 0.0630 kg/ha) | herbicide rating (0-9) (Corn, Field, Zea mays; 0.2500 kg/ha) | herbicidal effect rating (CYPSE Flatsedge [2]; 0.0625 kg/ha) | herbicidal effect rating (CYPSE Flatsedge [2]; 0.1250 kg/ha) | herbicidal effect rating (CYPSE Flatsedge [2]; 0.2500 kg/ha) | herbicidal effect rating (CYPSE Flatsedge [2]; 0.5000 kg/ha) | herbicide rating (0-9) [3] | herbicide rating (0-9) (Galium, Galium aparine) | herbicidal effect rating (ORYSAT Rice, Tebonnet [4]; 0.0625 kg/ha) | herbicidal effect rating (ORYSAT Rice, Tebonnet [4]; 0.1250 kg/ha) | herbicidal effect rating (ORYSAT Rice, Tebonnet [4]; 0.2500 kg/ha) | herbicidal effect rating (ORYSAT Rice, Tebonnet [4]; 0.5000 kg/ha) | herbicide rating (0-9) [5] | herbicide rating (0-9) ([6]; 0.0630 kg/ha) | herbicide rating (0-9) ([6]; 0.2500 kg/ha) | herbicide rating (0-9) ([7]; 0.0630 kg/ha) | herbicide rating (0-9) [8] | other results
1 | COC(=O)COc1ccc(C)cc1-c1nsc2ccc(-n3c(=O)cc(C(F)(F)F)n(C)c3=O)cc12 [Compound 2, Methyl {{2-{5-[3,6-dihydro-3-methyl-4-(trifluoromethyl) -2,6-dioxo-1(2H)-pyrimidinyl]-1,2-benzisothiazol-3-yl]-p-tolyl}oxy}acetate] | 3.0 | 7.0 | 8.0 | 8.0 | 7.5 | 0.0 | 0.0 | 0.0 | 0.0 | 9.0 | 9.0 | 3.0 | 3.0 | 5.0 | 9.0 | 9.0 | 9.0 | 9.0 | 8.8 | 9.0 | herbicidal effect rating (CYPSE Flatsedge [2]; 0.0313 kg/ha): 0.0; herbicidal effect rating (ORYSAT Rice, Tebonnet [4]; 0.0313 kg/ha): 2.0; herbicide rating (0-9) [9]: 9.0; herbicide rating (0-9) [10]: 4.0; herbicidal effect rating ([11]; 0.1250 kg/ha): 0.0; herbicidal effect rating ([11]; 0.2500 kg/ha): 2.0; herbicidal effect rating ([11]; 0.5000 kg/ha): 4.0; herbicide rating (0-9) [12]: 7.7; herbicide rating (0-9) (Soybean, Glycine max): 9.0; herbicide rating (0-9) ([13]; 0.0630 kg/ha): 9.0; herbicide rating (0-9) ([13]; 0.2500 kg/ha): 9.0; herbicidal effect rating (CYPSE Flatsedge [14]; 0.1250 kg/ha): 0.0; herbicidal effect rating (CYPSE Flatsedge [14]; 0.2500 kg/ha): 0.0; herbicidal effect rating (CYPSE Flatsedge [14]; 0.5000 kg/ha): 0.0
2 | COc1ccc(C)cc1-c1nsc2ccc(-n3c(=O)cc(C(F)(F)F)n(C)c3=O)cc12 [Compound 1, 3-[3-(6-Methoxy-m-tolyl)-1,2-benzisothiazol-5-yl]-1-methyl-6-(trifluoromethyl)-2,4(1H,3H)-pyrimidinedione] | 4.0 | 6.0 | 7.0 | 6.0 | 7.0 | 3.0 | 6.0 | 9.0 | 8.0 | 9.0 | 9.0 | 4.7 | 5.3 | 7.7 | 7.0 | 9.0 | 7.0 | 9.0 | 6.0 | 9.0 | herbicidal effect rating (CYPSE Flatsedge [2]; 0.0313 kg/ha): 1.3; herbicidal effect rating (ORYSAT Rice, Tebonnet [4]; 0.0313 kg/ha): 4.7; herbicide rating (0-9) ([7]; 0.2500 kg/ha): 7.0; herbicide rating (0-9) [9]: 9.0; herbicide rating (0-9) [10]: 6.0; herbicidal effect rating ([11]; 0.1250 kg/ha): 0.0; herbicidal effect rating ([11]; 0.2500 kg/ha): 1.0; herbicidal effect rating ([11]; 0.5000 kg/ha): 3.0; herbicide rating (0-9) [12]: 7.5; herbicide rating (0-9) (Soybean, Glycine max): 9.0; herbicide rating (0-9) ([13]; 0.0630 kg/ha): 9.0; herbicide rating (0-9) ([13]; 0.2500 kg/ha): 9.0; herbicidal effect rating (CYPSE Flatsedge [14]; 0.1250 kg/ha): 3.0; herbicidal effect rating (CYPSE Flatsedge [14]; 0.2500 kg/ha): 5.5; herbicidal effect rating (CYPSE Flatsedge [14]; 0.5000 kg/ha): 6.5
3 | Cc1nsc2ccc(-n3c(=O)cc(C(F)(F)F)n(C)c3=O)cc12 [Compound 6, 1-Methyl-3-(3-methyl-1,2-benzisothiazol-5-yl)-6-(trifluoromethyl)-2,4(1H,3H)-pyrimidinedione] | 9.0 | 9.0 | 9.0 | 4.5 | 3.5 | 4.0 | 7.0 | 9.0 | 9.0 | 9.0 | 9.0 | 8.0 | 8.0 | 8.0 | 8.0 | 9.0 | 1.5 | 6.0 | 4.8 | 9.0 | herbicide rating (0-9) ([7]; 0.2500 kg/ha): 7.0; herbicide rating (0-9) [9]: 9.0; herbicide rating (0-9) [10]: 8.0; herbicidal effect rating ([11]; 0.1250 kg/ha): 6.0; herbicidal effect rating ([11]; 0.2500 kg/ha): 8.0; herbicidal effect rating ([11]; 0.5000 kg/ha): 9.0; herbicide rating (0-9) [12]: 8.0; herbicide rating (0-9) (Soybean, Glycine max): 6.0; herbicide rating (0-9) ([13]; 0.0630 kg/ha): 9.0; herbicide rating (0-9) ([13]; 0.2500 kg/ha): 9.0; herbicidal effect rating (CYPSE Flatsedge [14]; 0.1250 kg/ha): 7.0; herbicidal effect rating (CYPSE Flatsedge [14]; 0.2500 kg/ha): 7.0; herbicidal effect rating (CYPSE Flatsedge [14]; 0.5000 kg/ha): 9.0
